ChEMBL document CHEMBL1201862, “PubChem BioAssay data set” (2004)
Activity calls are given as the source filed them.

Columns and labels:
Cytochrome P450 2D6 = Cytochrome P450 2D6 (Homo sapiens, UniProt P10635);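 further: CYP2D6 member of a cytochrome P450 panel assay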
Cytochrome P450 2C9 = Cytochrome P450 2C9 (Homo sapiens, UniProt P11712)
Cytochrome P450 3A4 = Cytochrome P450 3A4 (Homo sapiens, UniProt P08684);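 further: CYP3A4 tested as one member of a cytochrome P450 panel screen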
[1] = molecular target: Peroxisome proliferator-activated receptor gamma/Nuclear receptor coactivator 1 (Homo sapiens, UniProt P37231); experiment: (§1) TR-FRET dose response biochemical High Throughput Screening assay for agonists of the steroid receptor coactivator 1 (SRC-1) recruitment by the peroxisome proliferator-activated receptor gamma (PPAR gamma): non-selective agonists. [Related pubchem assays (depositor defined):AID1300, AID1808, AID504735, AID631]; type: protein assay
[2] = molecular target: Peroxisome proliferator-activated receptor gamma/Nuclear receptor coactivator 3 (Homo sapiens, UniProt P37231); experiment: as §1, with “3 (SRC-3)” for “1 (SRC-1)”, “assays: 1301 (Confirmation screen.), 1048 (Primary screen.)]” for “assays (depositor defined):AID1300, AID1808, AID504735, AID631]”; type: functional
[3] = molecular target: Peroxisome proliferator-activated receptor gamma/Nuclear receptor coactivator 2 (Homo sapiens, UniProt P37231); experiment: TR-FRET dose response biochemical High Throughput Screening assay for agonists of the steroid receptor coactivator 2 (SRC-2) recruitment by the peroxisome proliferator-activated receptor gamma (PPAR gamma): non-selective agonists. [Related pubchem assays: 1297, 1032 ]; type: functional
Vero = Vero cell cytotoxicity, cytotoxicity control for flavivirus capping enzyme inhibitors (AID 588742); type: functional; conditions: Chlorocebus sabaeus
Large T antigen = Large T antigen (Simian virus 40, UniProt P03070); type: functional, Betapolyomavirus macacae;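 further: Confirmatory-stage PubChem screen for compounds that inhibit SV40 T antigen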
[4] = inhibitors of firefly luciferase expression or activity, dose response, H4 neuroglioma cells, luminescence (AID 1990); type: functional, cell-based
[5] = A549 cell cytotoxicity, dose response, cytotoxicity control, plate reader, cherry-pick, antagonist series (AID 743412); type: functional, cell-based
[6] = MC4R antagonists, dose response, counter-screen for LGR2 antagonist project, cell-based, plate reader, cherry pick (AID 743444); type: functional;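 further: transfected HEK 293 cells stimulated with alpha-MSH peptide; potency of inhibitors of the alpha-MSH evoked signal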
[7] = LGR2 antagonists, dose response, cell-based, HEK293, CRE-luciferase reporter, cherry pick, set 2 (AID 743343); type: functional;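 further: transfected cells were stimulated with diluted bursicon conditioned medium after compound addition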
[8] = inhibitors of SNCA 5'UTR-driven reporter translation, confirmation, H4 neuroglioma cells, luminescence (AID 1988); type: functional, cell-based
[9] = Luminescence Cell-Based Dose Response HTS to Identify Inhibitors of 5'UTR Stem-Loop Driven Prion Protein mRNA Translation in H4 Neuroglioblastoma Cells. [Related pubchem assays: 1827 (Project Summary), 1813 (Primary HTS)]; type: functional
HEK293 [10] = experiment: inhibitors of LMP1-driven NF-kB reporter, dose response, cell-based, HEK293, luciferase, cherry-pick (AID 588343); type: functional; conditions: Homo sapiens
[11] = HepG2 cell cytotoxicity, dose response, cytotoxicity control, plate reader, cherry-pick, antagonist series (AID 743416); type: functional, cell-based
[12] = HEp-2 cell cytotoxicity, dose response, cytotoxicity control for RSV inhibitor project, HTS (AID 2410); type: functional; conditions: human respiratory syncytial virus
HEK293 [13] = experiment: HEK cell cytotoxicity by LDH release, dose response, cytotoxicity control for IDE activator project, fluorescence, HEK cells (AID 588440); type: functional, cell-based; conditions: Homo sapiens;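 further: cytotoxicity by LDH release measuring loss of membrane integrity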
HEK293 [14] = experiment: optical interference in Abeta FP readout, dose response, artefact control for IDE activator project, biochemical, fluorescence polarization (AID 588442); type: functional, cell-based; conditions: Homo sapiens
[15] = molecular target: T1, Voltage-gated N-type calcium channel alpha-1B subunit/Amyloid beta A4 precursor protein-binding family A member 1 (Homo sapiens, UniProt Q00975+Q02410); type: protein assay
T1 sequence (Q00975 whole entry): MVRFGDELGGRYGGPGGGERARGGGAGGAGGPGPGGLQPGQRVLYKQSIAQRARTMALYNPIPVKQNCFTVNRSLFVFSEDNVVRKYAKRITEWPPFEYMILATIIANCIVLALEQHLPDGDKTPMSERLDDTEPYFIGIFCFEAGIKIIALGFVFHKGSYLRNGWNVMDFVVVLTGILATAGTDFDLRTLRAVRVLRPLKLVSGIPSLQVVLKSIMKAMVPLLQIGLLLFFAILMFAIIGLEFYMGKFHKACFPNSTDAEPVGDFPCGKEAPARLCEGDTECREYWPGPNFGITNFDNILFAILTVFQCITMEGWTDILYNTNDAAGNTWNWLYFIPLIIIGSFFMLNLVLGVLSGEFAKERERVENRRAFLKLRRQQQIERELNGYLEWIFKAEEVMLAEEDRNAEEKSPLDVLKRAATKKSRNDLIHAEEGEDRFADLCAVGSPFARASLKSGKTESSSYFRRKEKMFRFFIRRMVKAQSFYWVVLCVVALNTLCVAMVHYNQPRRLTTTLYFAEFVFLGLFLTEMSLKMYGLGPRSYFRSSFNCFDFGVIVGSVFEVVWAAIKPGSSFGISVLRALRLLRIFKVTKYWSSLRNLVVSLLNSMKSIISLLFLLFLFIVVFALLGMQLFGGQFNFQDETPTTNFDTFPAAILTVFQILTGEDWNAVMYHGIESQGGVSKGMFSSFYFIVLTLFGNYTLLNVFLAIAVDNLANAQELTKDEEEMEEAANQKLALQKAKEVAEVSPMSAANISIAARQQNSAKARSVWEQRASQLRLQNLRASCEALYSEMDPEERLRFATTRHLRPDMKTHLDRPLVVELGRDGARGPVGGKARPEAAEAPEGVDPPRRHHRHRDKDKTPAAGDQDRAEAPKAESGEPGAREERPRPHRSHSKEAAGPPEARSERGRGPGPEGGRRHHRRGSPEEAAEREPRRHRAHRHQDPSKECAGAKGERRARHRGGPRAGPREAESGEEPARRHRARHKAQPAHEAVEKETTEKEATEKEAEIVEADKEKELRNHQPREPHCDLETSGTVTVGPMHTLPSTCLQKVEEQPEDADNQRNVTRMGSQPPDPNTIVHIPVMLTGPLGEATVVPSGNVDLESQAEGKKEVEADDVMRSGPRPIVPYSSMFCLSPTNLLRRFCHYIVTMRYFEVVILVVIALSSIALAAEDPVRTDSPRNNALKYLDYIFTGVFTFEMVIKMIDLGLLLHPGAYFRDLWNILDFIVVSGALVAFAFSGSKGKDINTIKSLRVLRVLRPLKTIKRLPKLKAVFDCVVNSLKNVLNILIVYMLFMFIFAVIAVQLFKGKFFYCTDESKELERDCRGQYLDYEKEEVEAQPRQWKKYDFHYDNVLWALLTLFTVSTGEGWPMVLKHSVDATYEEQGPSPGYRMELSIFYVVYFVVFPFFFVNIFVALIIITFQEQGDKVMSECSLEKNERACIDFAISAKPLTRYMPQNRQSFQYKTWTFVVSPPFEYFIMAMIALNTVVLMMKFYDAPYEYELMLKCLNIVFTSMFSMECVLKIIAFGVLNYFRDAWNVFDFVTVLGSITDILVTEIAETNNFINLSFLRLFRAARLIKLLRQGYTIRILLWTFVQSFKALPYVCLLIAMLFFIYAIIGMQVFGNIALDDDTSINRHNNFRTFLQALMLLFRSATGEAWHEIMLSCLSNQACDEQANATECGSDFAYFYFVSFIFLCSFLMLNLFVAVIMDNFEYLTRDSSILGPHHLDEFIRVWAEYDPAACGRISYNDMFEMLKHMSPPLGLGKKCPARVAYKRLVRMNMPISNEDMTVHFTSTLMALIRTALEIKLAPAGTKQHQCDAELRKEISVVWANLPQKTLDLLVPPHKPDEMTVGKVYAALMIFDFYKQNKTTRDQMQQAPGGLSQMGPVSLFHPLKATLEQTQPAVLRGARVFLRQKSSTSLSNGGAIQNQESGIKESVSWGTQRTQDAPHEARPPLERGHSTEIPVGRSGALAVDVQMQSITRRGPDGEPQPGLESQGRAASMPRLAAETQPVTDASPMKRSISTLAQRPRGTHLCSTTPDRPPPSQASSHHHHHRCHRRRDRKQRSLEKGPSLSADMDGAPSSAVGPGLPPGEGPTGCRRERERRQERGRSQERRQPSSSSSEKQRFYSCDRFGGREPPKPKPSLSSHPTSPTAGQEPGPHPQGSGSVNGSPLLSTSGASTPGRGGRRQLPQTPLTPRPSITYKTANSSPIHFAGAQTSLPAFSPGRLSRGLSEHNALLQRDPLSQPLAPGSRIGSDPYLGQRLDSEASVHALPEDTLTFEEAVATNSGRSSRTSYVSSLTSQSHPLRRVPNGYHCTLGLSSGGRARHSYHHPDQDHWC
T1 sequence (Q02410 whole entry): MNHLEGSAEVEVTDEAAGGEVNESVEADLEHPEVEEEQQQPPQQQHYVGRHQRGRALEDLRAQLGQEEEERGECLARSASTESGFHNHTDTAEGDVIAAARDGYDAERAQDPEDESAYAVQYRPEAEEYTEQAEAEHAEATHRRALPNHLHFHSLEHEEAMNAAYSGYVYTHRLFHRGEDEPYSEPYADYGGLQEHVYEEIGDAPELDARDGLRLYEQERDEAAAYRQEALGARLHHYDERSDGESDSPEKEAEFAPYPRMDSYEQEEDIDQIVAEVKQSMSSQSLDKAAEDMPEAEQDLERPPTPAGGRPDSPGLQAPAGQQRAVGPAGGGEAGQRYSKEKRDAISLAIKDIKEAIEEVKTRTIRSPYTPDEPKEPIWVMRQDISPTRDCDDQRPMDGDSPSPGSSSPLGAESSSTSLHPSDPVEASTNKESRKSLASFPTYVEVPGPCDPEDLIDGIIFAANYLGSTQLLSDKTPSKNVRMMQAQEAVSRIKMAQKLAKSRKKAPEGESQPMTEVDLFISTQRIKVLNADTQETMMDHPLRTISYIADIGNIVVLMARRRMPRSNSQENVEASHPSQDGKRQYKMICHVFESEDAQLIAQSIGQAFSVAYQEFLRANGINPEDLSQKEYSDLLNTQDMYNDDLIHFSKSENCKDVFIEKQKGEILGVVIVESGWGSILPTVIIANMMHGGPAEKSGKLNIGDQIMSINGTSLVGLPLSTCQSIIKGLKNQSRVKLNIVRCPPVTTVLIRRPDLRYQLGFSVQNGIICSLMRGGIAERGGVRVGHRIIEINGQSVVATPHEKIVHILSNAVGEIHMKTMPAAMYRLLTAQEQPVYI

[16] = molecular target: T1, Voltage-gated N-type calcium channel alpha-1B subunit/Amyloid beta A4 precursor protein-binding family A member 1; type: protein assay; remark: listed apart in the source
[17] = HepG2 cell cytotoxicity, dose response, cytotoxicity control for Shn3 inhibitor project, CellTiter-Glo, cherry-picked (AID 624134); type: functional, cell-based
[18] = molecular target: 26S proteasome non-ATPase regulatory subunit 14 (Homo sapiens, UniProt O00487); experiment: inhibition of proteasome subunit RPN11 – biochemical, fluorescence polarization, uHTS hits, confirmation (AID 602368); type: functional
26S proteasome non-ATPase regulatory subunit 14, sequence (O00487 whole entry): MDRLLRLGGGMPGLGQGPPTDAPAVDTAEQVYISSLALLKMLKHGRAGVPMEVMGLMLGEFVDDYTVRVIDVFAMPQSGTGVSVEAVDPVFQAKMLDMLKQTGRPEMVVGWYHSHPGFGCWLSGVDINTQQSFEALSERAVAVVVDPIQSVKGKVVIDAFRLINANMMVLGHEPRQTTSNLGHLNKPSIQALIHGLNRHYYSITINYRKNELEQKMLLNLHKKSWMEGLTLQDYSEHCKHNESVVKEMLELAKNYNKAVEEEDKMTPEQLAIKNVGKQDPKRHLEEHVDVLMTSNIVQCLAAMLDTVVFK

[19] = molecular target: 72 kDa type IV collagenase (Homo sapiens, UniProt P08253); experiment: Dose Response validation of uHTS RPN11 inhibitor hits using a MMP-2 Fluorescence assay.; type: functional
Prothrombin = Prothrombin (Bos taurus, UniProt P00735); experiment: thrombin inhibition, dose response, biochemical, fluorescence polarization, uHTS hits (AID 602369); type: functional
[20] = control 3'UTR Renilla luciferase suppression, dose response, counter-screen for Shn3 inhibitor project, cell-based, Clone20-Shn3RL, cherry-picked (AID 624133); type: functional
[21] = Shn3 3'UTR reporter inhibitors, dose response, cell-based, Clone20 osteoblasts, firefly luciferase, cherry-picked (AID 624132); type: functional;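 further: firefly luciferase luminescence from reporter carrying the Shn3 3'UTR in osteoblasts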
[22] = system: Streptococcus sp. 'group A'; experiment: growth inhibition of control SK(-) GAS strain, dose response, counter-screen for streptokinase expression inhibitor project, luminescence, kanamycin, BacTiterGlo, confirmation (AID 1900); type: functional, organism-based
Streptokinase A = molecular target: T2, Streptokinase A (Streptococcus pyogenes serotype M1, UniProt P10520); experiment: S. pyogenes streptokinase expression inhibitors, potency, dose response, plasminogen activation absorbance, OD405 (AID 1914); type: functional, Streptococcus pyogenes M1 GAS;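 further: secreted streptokinase activity via plasminogen activation per viability signal from cell pellet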
T2 sequence (P10520 whole entry): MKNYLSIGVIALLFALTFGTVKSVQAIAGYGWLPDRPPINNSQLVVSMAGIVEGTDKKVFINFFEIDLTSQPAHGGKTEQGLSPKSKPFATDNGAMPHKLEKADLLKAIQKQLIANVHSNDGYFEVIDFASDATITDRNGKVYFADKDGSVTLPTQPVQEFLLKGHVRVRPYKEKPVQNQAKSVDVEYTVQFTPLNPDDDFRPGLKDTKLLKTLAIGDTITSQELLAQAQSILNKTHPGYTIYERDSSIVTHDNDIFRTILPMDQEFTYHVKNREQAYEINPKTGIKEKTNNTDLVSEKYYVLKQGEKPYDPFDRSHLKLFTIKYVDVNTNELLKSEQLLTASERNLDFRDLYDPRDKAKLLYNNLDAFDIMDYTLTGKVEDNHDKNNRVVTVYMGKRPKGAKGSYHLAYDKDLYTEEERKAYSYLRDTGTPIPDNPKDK

Streptococcus = experiment: Group A Streptococcus viability loss, dose response, counter-screen for streptokinase expression inhibitor project, luminescence, BacTiterGlo (AID 1915); type: functional, organism-based;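 further: potency for reduction of bacterial viability or growth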
[23] = molecular target: T3, Endoribonuclease toxin MazF (Escherichia coli K-12, UniProt P0AE70); experiment: MazF toxin RNase activators, dose response, biochemical, fluorescence, single-stranded RNA substrate, uHTS hits (AID 588481); type: functional
T3 sequence (P0AE70 whole entry): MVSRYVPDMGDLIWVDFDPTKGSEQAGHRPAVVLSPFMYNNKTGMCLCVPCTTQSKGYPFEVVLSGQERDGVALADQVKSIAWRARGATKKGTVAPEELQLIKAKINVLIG

[24] = molecular target: T3, Endoribonuclease toxin MazF; experiment: fluorescent RNA oligo signal without MazF, dose response, counter-screen for MazEF activator project, biochemical, fluorescence, single-stranded RNase substrate (AID 588502); type: functional

Cytochrome P450 3A4, sequence (P08684 whole entry): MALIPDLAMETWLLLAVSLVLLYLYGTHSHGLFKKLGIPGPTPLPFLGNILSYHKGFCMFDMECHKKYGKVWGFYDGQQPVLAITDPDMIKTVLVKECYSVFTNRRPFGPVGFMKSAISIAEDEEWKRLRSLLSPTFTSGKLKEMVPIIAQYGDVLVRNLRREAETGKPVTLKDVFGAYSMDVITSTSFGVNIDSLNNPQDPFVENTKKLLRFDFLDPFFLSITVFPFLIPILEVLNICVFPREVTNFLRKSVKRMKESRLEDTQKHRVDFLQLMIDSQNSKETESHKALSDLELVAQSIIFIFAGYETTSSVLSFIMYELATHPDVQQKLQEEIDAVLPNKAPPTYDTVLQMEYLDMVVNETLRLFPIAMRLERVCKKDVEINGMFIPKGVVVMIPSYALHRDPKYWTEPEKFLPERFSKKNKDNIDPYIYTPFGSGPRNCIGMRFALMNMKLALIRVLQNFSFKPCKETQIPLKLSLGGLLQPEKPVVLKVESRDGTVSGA
Cytochrome P450 2D6, sequence (P10635 whole entry): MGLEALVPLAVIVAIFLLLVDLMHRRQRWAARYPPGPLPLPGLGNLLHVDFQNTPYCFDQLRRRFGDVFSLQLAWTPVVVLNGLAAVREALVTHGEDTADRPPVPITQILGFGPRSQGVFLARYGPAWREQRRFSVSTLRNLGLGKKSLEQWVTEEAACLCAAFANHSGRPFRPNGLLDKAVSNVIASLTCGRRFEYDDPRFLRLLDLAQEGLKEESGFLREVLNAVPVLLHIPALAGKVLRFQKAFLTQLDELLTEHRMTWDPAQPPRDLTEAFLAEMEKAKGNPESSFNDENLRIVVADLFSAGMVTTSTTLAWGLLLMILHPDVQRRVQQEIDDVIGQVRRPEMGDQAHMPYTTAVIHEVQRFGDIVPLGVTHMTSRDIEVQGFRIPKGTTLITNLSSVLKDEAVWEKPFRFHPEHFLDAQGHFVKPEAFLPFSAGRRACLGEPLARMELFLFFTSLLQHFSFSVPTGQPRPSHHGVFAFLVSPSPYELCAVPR
Cytochrome P450 2C9, sequence (P11712 whole entry): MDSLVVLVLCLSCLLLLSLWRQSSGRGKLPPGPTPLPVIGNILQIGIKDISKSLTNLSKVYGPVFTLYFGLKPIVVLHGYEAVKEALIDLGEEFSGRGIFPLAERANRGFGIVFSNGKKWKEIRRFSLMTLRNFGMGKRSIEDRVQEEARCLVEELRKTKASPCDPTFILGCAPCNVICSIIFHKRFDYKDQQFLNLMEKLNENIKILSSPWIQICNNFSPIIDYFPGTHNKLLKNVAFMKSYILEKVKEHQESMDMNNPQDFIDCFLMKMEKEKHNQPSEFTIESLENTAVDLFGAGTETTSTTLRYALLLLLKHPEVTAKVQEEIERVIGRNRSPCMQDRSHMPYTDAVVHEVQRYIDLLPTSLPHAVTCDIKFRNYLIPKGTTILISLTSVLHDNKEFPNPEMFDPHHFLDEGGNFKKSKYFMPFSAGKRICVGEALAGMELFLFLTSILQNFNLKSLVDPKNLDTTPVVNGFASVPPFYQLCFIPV

O=C(NCc1ccccn1)c1cc(-c2ccccc2Cl)on1
AC50 (Cytochrome P450 2D6): inconclusive
AC50 (Cytochrome P450 2C9): inconclusive
AC50 (Cytochrome P450 3A4): 15.8 µM (inconclusive)

CCOC(=O)N1CCC(NC(=O)CSc2cc(=O)n(C)c3ccccc23)CC1
EC50 [1]: > 79.4 µM (inactive)
EC50 [2]: > 79.4 µM (not active)
EC50 [3]: > 79.4 µM (not active)

Oc1ccc(NCc2cccs2)cc1
CC50 (Vero): > 40 µM (active)
IC50 (Large T antigen): 28.7 µM (active)

COc1ccc(NC(=O)N2CC[C@@]3(CCCN(C(=O)c4cnccn4)C3)C2)cc1
AC50 (Cytochrome P450 2D6): inconclusive
AC50 (Cytochrome P450 3A4): 3.16 µM (inconclusive)

c1ccc(-n2nnc3c(N4CCOCC4)ncnc32)cc1
EC50 [4]: 6.29 µM (inconclusive)
AC50 [5]: > 52 µM (inactive)
AC50 [6]: 8.39 µM (active)
AC50 [7]: 7.67 µM (active)
EC50 [8]: 7.18 µM (inconclusive)
EC50 [9]: 8.24 µM (active)
AC50 (HEK293 [10]): 2.47 µM (active)
AC50 [11]: > 52 µM (inactive)
CC50 [12]: 23.6 µM (active)

Cc1[nH]c(O)nc1C(=O)CCCCC(=O)O
IC50 (HEK293 [13]): > 89.3 µM (inactive)
EC50 (HEK293 [14]): 22.6 µM (inactive)

CC1=C(C(=O)O)N2C(=O)[C@@H](NC(=O)CCCC(=O)O)[C@H]2SC1
IC50 [15]: 34 µM (active)
IC50 [16]: > 50 µM (inactive)

CCc1ccc(NC(=O)C2CCN(S(=O)(=O)c3ccc4c(c3)NC(=O)C(C)S4)CC2)cc1 (stereo not given)
AC50 [17]: 6.54 µM (active)
IC50 [18]: 31.8 µM (active)
IC50 [19]: > 100 µM (inactive)
IC50 (Prothrombin): 42 µM (active)
AC50 [20]: 6 µM (active)
AC50 [21]: 7.08 µM (active)

Cc1ccc(/C=C/C(=O)C2C(=O)c3ccccc3C2=O)cc1
EC50 [22]: 1.95 µM (active)
EC50 (Streptokinase A): > 150 µM (not active)
AC50 (HEK293 [10]): 4.18 µM (active)
EC50 (Streptococcus): 9.64 µM (active)

COC(=O)CSc1nc2cc(C)ccc2cc1C#N
EC50 [23]: > 99 µM (inactive)
EC50 [24]: > 99 µM (inactive)
